Measured values taken from the NIST ThermoML archive (doi:10.1016/j.jct.2015.04.024).

Test: mn = molality of the nth substance listed, in mol/kg
Conditions: 75 kPa, Liquid, Buoyancy - hydrostatic balance with magnetic suspension - one sinker

NCC(=O)O [2-aminoacetic acid] + O
Conditions | mass density [kg/m3]
275.63 K, m1 = 0.02975 | 1000.98
275.63 K, m1 = 0.03917 | 1001.3
275.63 K, m1 = 0.05033 | 1001.69
275.63 K, m1 = 0.0596 | 1002
275.63 K, m1 = 0.07025 | 1002.37
275.63 K, m1 = 0.07948 | 1002.68
275.63 K, m1 = 0.089 | 1003.01
275.63 K, m1 = 0.09846 | 1003.34
276.13 K, m1 = 0.03055 | 1001.01
276.13 K, m1 = 0.04004 | 1001.34
276.13 K, m1 = 0.05063 | 1001.71
276.13 K, m1 = 0.05984 | 1002.02
276.13 K, m1 = 0.06886 | 1002.32
276.13 K, m1 = 0.08159 | 1002.76
276.13 K, m1 = 0.08976 | 1003.05
276.13 K, m1 = 0.1001 | 1003.39
276.69 K, m1 = 0.02962 | 1000.98
276.69 K, m1 = 0.03964 | 1001.32
276.69 K, m1 = 0.04889 | 1001.63
276.69 K, m1 = 0.06028 | 1002.02
276.69 K, m1 = 0.06972 | 1002.34
276.69 K, m1 = 0.07961 | 1002.68
276.69 K, m1 = 0.0885 | 1002.98
276.69 K, m1 = 0.1008 | 1003.39
277.12 K, m1 = 0.02962 | 1000.96
277.12 K, m1 = 0.03964 | 1001.31
277.12 K, m1 = 0.04889 | 1001.62
277.12 K, m1 = 0.06028 | 1002.01
277.12 K, m1 = 0.06972 | 1002.32
277.12 K, m1 = 0.07961 | 1002.66
277.12 K, m1 = 0.0885 | 1002.97
277.12 K, m1 = 0.1008 | 1003.38
277.67 K, m1 = 0.02975 | 1000.98
277.67 K, m1 = 0.03917 | 1001.3
277.67 K, m1 = 0.05033 | 1001.68
277.67 K, m1 = 0.0596 | 1002
277.67 K, m1 = 0.07025 | 1002.36
277.67 K, m1 = 0.07948 | 1002.67
277.67 K, m1 = 0.085 | 1002.85
277.67 K, m1 = 0.09846 | 1003.32
278.12 K, m1 = 0.02966 | 1000.97
278.12 K, m1 = 0.04207 | 1001.38
278.12 K, m1 = 0.05006 | 1001.65
278.12 K, m1 = 0.06152 | 1002.04
278.12 K, m1 = 0.06869 | 1002.28
278.12 K, m1 = 0.0814 | 1002.71
278.12 K, m1 = 0.08635 | 1002.88
278.12 K, m1 = 0.09984 | 1003.33
278.65 K, m1 = 0.02951 | 1000.95
278.65 K, m1 = 0.04154 | 1001.35
278.65 K, m1 = 0.04986 | 1001.64
278.65 K, m1 = 0.05429 | 1001.78
278.65 K, m1 = 0.07168 | 1002.36
278.65 K, m1 = 0.08119 | 1002.67
278.65 K, m1 = 0.0895 | 1002.96
278.65 K, m1 = 0.09674 | 1003.2

CCC(N)C(=O)O (stereo not drawn) [(.+-.)-α-aminobutyric acid] + O
Conditions | mass density [kg/m3]
275.63 K, m1 = 0.03017 | 1000.84
275.63 K, m1 = 0.03851 | 1001.09
275.63 K, m1 = 0.04794 | 1001.36
275.63 K, m1 = 0.06041 | 1001.72
275.63 K, m1 = 0.072 | 1002.07
275.63 K, m1 = 0.07612 | 1002.18
275.63 K, m1 = 0.08971 | 1002.58
275.63 K, m1 = 0.0967 | 1002.78
276.13 K, m1 = 0.03035 | 1000.85
276.13 K, m1 = 0.03896 | 1001.1
276.13 K, m1 = 0.04967 | 1001.42
276.13 K, m1 = 0.05823 | 1001.67
276.13 K, m1 = 0.07075 | 1002.03
276.13 K, m1 = 0.08046 | 1002.31
276.13 K, m1 = 0.0901 | 1002.6
276.13 K, m1 = 0.0968 | 1002.78
276.69 K, m1 = 0.0256 | 1000.72
276.69 K, m1 = 0.03484 | 1000.99
276.69 K, m1 = 0.04383 | 1001.25
276.69 K, m1 = 0.05138 | 1001.47
276.69 K, m1 = 0.06131 | 1001.77
276.69 K, m1 = 0.06872 | 1001.99
276.69 K, m1 = 0.0783 | 1002.24
276.69 K, m1 = 0.08694 | 1002.51
277.12 K, m1 = 0.03035 | 1000.86
277.12 K, m1 = 0.03896 | 1001.12
277.12 K, m1 = 0.04967 | 1001.42
277.12 K, m1 = 0.05823 | 1001.68
277.12 K, m1 = 0.07075 | 1002.04
277.12 K, m1 = 0.08046 | 1002.31
277.12 K, m1 = 0.0901 | 1002.6
277.12 K, m1 = 0.0968 | 1002.79
277.67 K, m1 = 0.0256 | 1000.71
277.67 K, m1 = 0.03484 | 1000.99
277.67 K, m1 = 0.04383 | 1001.25
277.67 K, m1 = 0.05138 | 1001.47
277.67 K, m1 = 0.06131 | 1001.76
277.67 K, m1 = 0.06872 | 1001.99
277.67 K, m1 = 0.0783 | 1002.25
277.67 K, m1 = 0.08694 | 1002.51
278.12 K, m1 = 0.03122 | 1000.86
278.12 K, m1 = 0.04081 | 1001.16
278.12 K, m1 = 0.04913 | 1001.38
278.12 K, m1 = 0.05983 | 1001.72
278.12 K, m1 = 0.07098 | 1002.05
278.12 K, m1 = 0.08031 | 1002.3
278.12 K, m1 = 0.09051 | 1002.6
278.12 K, m1 = 0.09974 | 1002.85
278.65 K, m1 = 0.0312 | 1000.86
278.65 K, m1 = 0.04081 | 1001.12
278.65 K, m1 = 0.04913 | 1001.35
278.65 K, m1 = 0.05983 | 1001.67
278.65 K, m1 = 0.07098 | 1002
278.65 K, m1 = 0.08031 | 1002.27
278.65 K, m1 = 0.09051 | 1002.57
278.65 K, m1 = 0.0997 | 1002.85

CC(N)C(=O)O (stereo not drawn) [DL-2-aminopropanoic acid] + O
Conditions | mass density [kg/m3]
275.63 K, m1 = 0.0294 | 1000.85
275.63 K, m1 = 0.04005 | 1001.17
275.63 K, m1 = 0.04974 | 1001.47
275.63 K, m1 = 0.0592 | 1001.76
275.63 K, m1 = 0.0695 | 1002.07
275.63 K, m1 = 0.08475 | 1002.53
275.63 K, m1 = 0.0911 | 1002.72
275.63 K, m1 = 0.1019 | 1003.05
276.13 K, m1 = 0.03044 | 1000.88
276.13 K, m1 = 0.04034 | 1001.19
276.13 K, m1 = 0.04918 | 1001.46
276.13 K, m1 = 0.05989 | 1001.78
276.13 K, m1 = 0.07063 | 1002.11
276.13 K, m1 = 0.07952 | 1002.37
276.13 K, m1 = 0.09022 | 1002.69
276.13 K, m1 = 0.09952 | 1002.98
276.69 K, m1 = 0.03006 | 1000.88
276.69 K, m1 = 0.04009 | 1001.19
276.69 K, m1 = 0.04963 | 1001.48
276.69 K, m1 = 0.0606 | 1001.81
276.69 K, m1 = 0.0711 | 1002.13
276.69 K, m1 = 0.07938 | 1002.37
276.69 K, m1 = 0.08509 | 1002.54
276.69 K, m1 = 0.09839 | 1002.95
277.12 K, m1 = 0.03044 | 1000.89
277.12 K, m1 = 0.04034 | 1001.19
277.12 K, m1 = 0.0492 | 1001.46
277.12 K, m1 = 0.05989 | 1001.78
277.12 K, m1 = 0.07063 | 1002.1
277.12 K, m1 = 0.07952 | 1002.37
277.12 K, m1 = 0.09022 | 1002.7
277.12 K, m1 = 0.09952 | 1002.97
277.67 K, m1 = 0.02944 | 1000.85
277.67 K, m1 = 0.04005 | 1001.17
277.67 K, m1 = 0.04974 | 1001.46
277.67 K, m1 = 0.0592 | 1001.74
277.67 K, m1 = 0.0695 | 1002.06
277.67 K, m1 = 0.08475 | 1002.51
277.67 K, m1 = 0.0911 | 1002.7
277.67 K, m1 = 0.1019 | 1003.04
278.12 K, m1 = 0.03078 | 1000.9
278.12 K, m1 = 0.03875 | 1001.11
278.12 K, m1 = 0.04963 | 1001.45
278.12 K, m1 = 0.05968 | 1001.76
278.12 K, m1 = 0.0709 | 1002.09
278.12 K, m1 = 0.07928 | 1002.34
278.12 K, m1 = 0.09099 | 1002.69
278.12 K, m1 = 0.1006 | 1002.98
278.65 K, m1 = 0.03078 | 1000.89
278.65 K, m1 = 0.03875 | 1001.13
278.65 K, m1 = 0.04963 | 1001.45
278.65 K, m1 = 0.05968 | 1001.75
278.65 K, m1 = 0.0709 | 1002.09
278.65 K, m1 = 0.07928 | 1002.34
278.65 K, m1 = 0.09099 | 1002.68
278.65 K, m1 = 0.1006 | 1002.96
